Data on three molecules can be found in EPA's ToxRefDB 2.

The subject of data set [1] is mouse. To be noted: Combined chronic toxicity/carcinogenicity, b6c3f1, Oral, Feed, dose end: 24 month, group: systemic.
Data set [2] deals with mouse. To be noted: Subchronic oral toxicity in rodents, b6c3f1, Feed, dose end: 13 week, group: systemic.
Data set [3] concerns mouse. To be noted: Subchronic oral toxicity in rodents, Feed, dose end: 13 week, group: systemic, systemic / in life observation / body weight / body weight.
Data set [4] relates to dog. To be noted: Subchronic oral toxicity in nonrodent, beagle, Capsule, dose end: 93 day, group: systemic.
Data set [5] has as its system rat. To be noted: Prenatal developmental toxicity study, sprague dawley, Oral, Gavage/Intubation, dose end: 15 GD.
The subject of data set [6] is rat. To be noted: Combined chronic toxicity/carcinogenicity, fischer, Oral, Feed, dose end: 104 week, group: systemic.
The test system of data set [7] is dog. The note with it: Chronic toxicity; beagle; Oral; Capsule; dose end: 52 week; group: systemic; systemic / in life observation / clinical signs / defecation (diarrhea) + systemic / in life observation / clinical signs / vomitting + ….
The subject of data set [8] is mouse. The note with it: Carcinogenicity, cd1, Oral, Feed, dose end: 78 week, group: systemic.
The test system of data set [9] is rat. The note with it: Subchronic oral toxicity in rodents, fischer, Feed, dose end: 90 day, group: systemic.
The subject of data set [10] is mouse. To be noted: Chronic toxicity; b6c3f1; Oral; Feed; dose end: 80 week; group: systemic; systemic / in life observation / clinical signs / alopecia + systemic / in life observation / clinical signs / distended abdomens + systemic….
In data set [11] the test system is rat. To be noted: Subchronic oral toxicity in rodents, other, Feed, dose end: 6 week, group: systemic, systemic / in life observation / body weight / body weight + systemic / in life observation / mortality / mortality.
In data set [12] the test system is mouse. To be noted: Subchronic oral toxicity in rodents, b6c3f1, Feed, dose end: 6 week, group: systemic, systemic / in life observation / mortality / mortality.
For data set [13], the system named is rat. To be noted: Chronic toxicity; other; Oral; Feed; dose end: 74 week; group: systemic; systemic / in life observation / body weight / body weight + systemic / in life observation / clinical signs / convulsions + systemic / in ….
[14] abbreviates: systemic / pathology microscopic / kidney / vacuolization.
[15] abbreviates: systemic / pathology microscopic / kidney / vacuolization + systemic / in life observation / body weight / body weight + systemic / ….
Where [16] appears, read: systemic / in life observation / body weight / body weight.
Where [17] appears, read: systemic / in life observation / clinical signs / defecation (diarrhea) + systemic / in life observation / clinical signs / vomitting + ….
[18] abbreviates: group: developmental, developmental / developmental malformation / bone / full supernumerary.
Where [19] appears, read: group: maternal, systemic / in life observation / body weight / body weight gain + systemic / in life observation / water consumption / water consumption.
Setting [20] is: group: maternal, systemic / in life observation / body weight / body weight gain + systemic / in life observation / water consumption / water consumption + ….
The mark [21] stands for this setting: systemic / clinical chemistry / creatine phosphokinase / creatine phosphokinase + systemic / organ weight / liver / absolute + systemic / ….
Where [22] appears, read: systemic / pathology microscopic / stomach / dysplasia.
Where [23] appears, read: systemic / in life observation / body weight / body weight gain + systemic / organ weight / brain / relative to body weight + systemic / ….
Setting [24] is: systemic / organ weight / liver / relative to body weight + systemic / clinical chemistry / beta globulin / beta globulin + systemic / ….

The NOAEL is the highest tested level that showed no adverse finding. As usually defined, the LOAEL is the lowest dose or exposure tested at which an adverse effect was seen. Turning to `O=C(O)c1cccc(Cl)n1` [6-Chloro-2-picolinic acid], the values for the NOAEL in the data set with mouse [1] (setting [14]), in the data set with mouse [2] (setting [15]) and in the data set on mouse [3] were 300 mg/kg/day, 700 mg/kg/day and 400 mg/kg/day, respectively. Besides, the LOAEL was 900 mg/kg/day in the data set on mouse [1] (systemic / pathology microscopic / kidney / vacuolization + systemic / in life observation / body weight / body weight), 900 mg/kg/day with mouse [2] (setting [14]) and 800 mg/kg/day with mouse [3]. In addition, the values for the LEL with mouse [1] (setting [15]), with mouse [2] (setting [16]) and in the data set on mouse [3] were 900 mg/kg/day, 400 mg/kg/day and 800 mg/kg/day, respectively. Besides, the figures for the NEL with mouse [1] (systemic / pathology microscopic / liver / carcinoma + systemic / organ weight / liver / absolute + systemic / organ weight / liver / …), in the data set on mouse [2] (setting [16]) and with mouse [3] were 300 mg/kg/day, 150 mg/kg/day and 400 mg/kg/day, respectively.

In the case of `CCc1nn(C)c(C(=O)NCc2ccc(C(C)(C)C)cc2)c1Cl` [Tebufenpyrad], the LOAEL in the data set with dog [4] (systemic / in life observation / clinical signs / defecation (diarrhea) + systemic / in life observation / clinical signs / vomitting) is 10 mg/kg/day; in the data set with rat [5] (setting [18]), 90 mg/kg/day; in the data set on rat [5] (setting [19]), 50 mg/kg/day; with rat [6] (systemic / organ weight / liver / absolute + systemic / organ weight / liver / relative to body weight + systemic / clinical chemistry / …), 6.52 mg/kg/day; in the data set on dog [7], 6 mg/kg/day; in the data set on mouse [8] (systemic / in life observation / body weight / body weight gain), 64.4 mg/kg/day. The LOAEL in the data set with rat [9] (setting [23]) amounted to 29 mg/kg/day. In addition, the LEL stood at 10 mg/kg/day in the data set with dog [4] (setting [17]); 90 mg/kg/day in the data set on rat [5] (setting [18]); 50 mg/kg/day with rat [5] (setting [19]); 0.21 mg/kg/day in the data set with rat [6] (setting [21]); 6 mg/kg/day in the data set with dog [7]; 4.2 mg/kg/day in the data set with mouse [8] (setting [22]). The LEL in the data set on rat [9] (setting [24]) is 0.7 mg/kg/day. The NEL was 2 mg/kg/day in the data set with dog [4] (setting [17]); 50 mg/kg/day in the data set on rat [5] (setting [18]); 15 mg/kg/day with rat [5] (setting [20]); under 0.21 mg/kg/day in the data set on rat [6] (setting [21]); 1 mg/kg/day in the data set with dog [7]; under 4.2 mg/kg/day with mouse [8] (setting [22]). Also, the NEL with rat [9] (setting [24]) was under 0.7 mg/kg/day. In addition, the NOAEL turned out to be 2 mg/kg/day with dog [4] (setting [17]); 50 mg/kg/day with rat [5] (setting [18]); 15 mg/kg/day in the data set with rat [5] (setting [20]); 0.82 mg/kg/day with rat [6] (setting [21]); 1 mg/kg/day in the data set with dog [7]; 3.6 mg/kg/day in the data set with mouse [8] (systemic / in life observation / body weight / body weight gain + systemic / in life observation / body weight / body weight + systemic / …). The NOAEL in the data set on rat [9] (setting [23]) is 6.8 mg/kg/day.

Take `ClC1=C(Cl)[C@]2(Cl)[C@H]3[C@H]([C@@H]4C=C[C@H]3C4)[C@@]1(Cl)C2(Cl)Cl` [Aldrin]: in the data set on mouse [10], the LEL stood at 0.45 mg/kg/day, the LOAEL is over 0.9 mg/kg/day, the NEL was under 0.45 mg/kg/day and the NOAEL was at least 0.9 mg/kg/day. In the data set with rat [11], the LEL was 8 mg/kg/day, the LOAEL is over 16 mg/kg/day, the NEL is 4 mg/kg/day and the NOAEL was at least 16 mg/kg/day. Also, in the data set on mouse [12], the LEL came to 6 mg/kg/day, the LOAEL is over 12 mg/kg/day, the NEL worked out at 3 mg/kg/day and the NOAEL was at least 12 mg/kg/day. In the data set with rat [13], the LEL came out at 1.5 mg/kg/day, the LOAEL is 1.5 mg/kg/day, the NEL is under 1.5 mg/kg/day and the NOAEL was under 1.5 mg/kg/day.
